Measurements from US20210277020A1, “HETEROCYCLIC COMPOUNDS AS MONOACYLGLYCEROL LIPASE INHIBITORS” (Hoffmann-La Roche Inc., priority 2018, published 2021).

The compounds below were run against T1, MAGL (Homo sapiens, UniProt Q99685) (assay: 2-AG assay: MAGL inhibition followed by hydrolysis of 2-arachidonoylglycerol to arachidonic acid, mass spectrometry). Conditions: measured in 2-AG assay (footnote [a]); substrate 2-arachidonoylglycerol 8 μM, 30 min at RT.
T1 sequence (Q99685 1-303): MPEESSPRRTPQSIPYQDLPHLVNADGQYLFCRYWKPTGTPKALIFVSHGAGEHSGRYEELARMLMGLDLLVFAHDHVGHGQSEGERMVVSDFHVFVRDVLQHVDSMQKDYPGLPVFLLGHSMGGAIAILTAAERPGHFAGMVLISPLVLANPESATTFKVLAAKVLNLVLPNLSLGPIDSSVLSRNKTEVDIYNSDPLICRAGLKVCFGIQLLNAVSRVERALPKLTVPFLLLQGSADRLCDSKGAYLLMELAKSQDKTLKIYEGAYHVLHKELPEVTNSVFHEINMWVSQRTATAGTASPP
Format: biochemical
From the text: Alternatively, compounds were profiled for MAGL inhibitory activity by determining the enzymatic activity by following the hydrolysis of the natural substrate, 2-arachidonoylglycerol, resulting in arachidonic acid, which can be followed by mass spectrometry. This assay is hereinafter abbreviated “2-AG assay”.
Detection by mass spectrometry in the present 2-AG assay has the advantage over known optical assays that the natural enzyme substrate, 2-arachidonoylglycerol, can be used instead of structurally unrelated compounds needed for optical readouts (such as 4-NPA). It thereby delivers more relevant data for activity determination, reduces false positives and generally adds to data quality. In addition, this assay reduces the analysis time from about 10 minutes per sample with standard methods to under 10 seconds per sample. This allows for using the present 2-AG assay in a method for high throughput screening of compounds for their MAGL inhibitory activity.
The 2-AG assay was carried out in 384 well assay plates (PP, Greiner Cat #784201) in a total volume of 20 μL. Compound dilutions were made in 100% DMSO (VWR Chemicals 23500.297) in a polypropylene plate in 3-fold dilution steps to give a final concentration range in the assay from 12.5 μM to […]. 0.25 μL compound dilutions (100% DMSO) were added to 9 μL MAGL in assay buffer (50 mM TRIS (GIBCO, 15567-027), 1 mM EDTA (Fluka, 03690-100 mL), 0.01% (v/v) Tween. After shaking, the plate was incubated for 15 min at RT. To start the reaction, 10 μL 2-arachidonoylglycerol in assay buffer was added. The final concentrations in the assay was […] and 8 μM 2-arachidonoylglyerol. After shaking and 30 min incubation at RT, the reaction was quenched by the addition of 40 μL of acetonitrile containing 4 μM of d8-arachidonic acid. The amount of arachidonic acid was traced by an online SPE system (Agilent Rapidfire) coupled to a triple quadrupole mass spectrometer (Agilent 6460). A C18 SPE cartridge (G9205A) was used in an acetonitrile/water liquid setup. The mass spectrometer was operated in negative electrospray mode following the mass transitions 303.1→259.1 for arachidonic acid and 311.1→267.0 for d8-arachidonic acid. The activity of the compounds was calculated based on the ratio of intensities [arachidonic acid/d8-arachidonic acid].
In a preferred embodiment, the method for determining the MAGL inhibitory activity of a test compound according to the invention, comprises: • (i) providing a solution of a test compound; • (ii) adding the solution of step (i) to a solution of MAGL; • (iii) shaking the mixture obtained from step (ii); • (iv) incubating the mixture obtained from step (iii); • (v) adding a solution of 2-arachidonoylglycerol; • (vi) incubating the mixture obtained from step (v); • (vii) adding a solution of d8-arachidonic acid; and • (viii) determining the ratio of intensities arachidonic acid/d8-arachidonic acid using a mass spectrometer.

Structure (SMILES) | IC50
O=C1CO[C@H]2CCN(C(=O)N3CCC(C#Cc4ccccc4C(F)(F)F)CC3)C[C@H]2N1 [Example 192, (4aR,8aS)-6-(4-((2-(Trifluoromethyl)phenyl)ethynyl)piperidine-1-carbonyl)hexahydro-2H-pyrido[4,3-b][1,4]oxazin-3(4H)-one] | 18 nM
O=C1CO[C@H]2CCN(C(=O)N3CC(C#Cc4ccc(C5CC5)cc4)C3)C[C@H]2N1 [Example 179, (4aR,8aS)-6-[3-[2-(4-Cyclopropylphenyl)ethynyl]azetidine-1-carbonyl]-4,4a,5,7,8,8a-hexahydropyrido[4,3-b][1,4]oxazin-3-one] | 6 nM
COc1ccccc1C#CC1CN(C(=O)N2CC[C@@H]3OCC(=O)N[C@@H]3C2)C1 [Example 163, (4aR,8aS)-6-(3-((2-Methoxyphenyl)ethynyl)azetidine-1-carbonyl)hexahydro-2H-pyrido[4,3-b][1,4]oxazin-3(4H)-one] | 49 nM
O=C1CO[C@H]2CCN(C(=O)N3CC(Sc4ccc(C(F)(F)F)cc4Cl)C3)C[C@H]2N1 [Example 143, (4aR,8aS)-6-[3-[2-Chloro-4-(trifluoromethyl)phenyl]sulfanylazetidine-1-carbonyl]-4,4a,5,7,8,8a-hexahydropyrido[4,3-b][1,4]oxazin-3-one] | 105 nM
O=C1CO[C@H]2CCN(C(=O)N3CC(SCc4c(F)cccc4C(F)(F)F)C3)C[C@H]2N1 [Example 295, (4aR,8aS)-6-(3-((2-Fluoro-6-(trifluoromethyl)benzyl)thio)azetidine-1-carbonyl)hexahydro-2H-pyrido[4,3-b][1,4]oxazin-3(4H)-one] | 23 nM
Cc1cccc(Cl)c1C#CC1CN(C(=O)N2CC[C@@H]3OCC(=O)N[C@@H]3C2)C1 [Example 184, (4aR,8aS)-6-[3-[2-(2-Chloro-6-methylphenyl)ethynyl]azetidine-1-carbonyl]-4,4a,5,7,8,8a-hexahydropyrido[4,3-b][1,4]oxazin-3-one] | 6 nM
O=C1CO[C@H]2CCN(C(=O)N3CC(C#CC4(O)CCCC4)C3)C[C@H]2N1 [Example 198, (4aR,8aS)-6-[3-[2-(1-Hydroxycyclopentyl)ethynyl]azetidine-1-carbonyl]-4,4a,5,7,8,8a-hexahydropyrido[4,3-b][1,4]oxazin-3-one] | 507 nM
O=C1CO[C@H]2CCN(C(=O)N3CC(CS(=O)(=O)c4ccc(C(F)(F)F)cc4Cl)C3)C[C@H]2N1 [Example 152, (4aR,8aS)-6-[3-[[2-Chloro-4-(trifluoromethyl)phenyl]sulfonylmethyl]azetidine-1-carbonyl]-4,4a,5,7,8,8a-hexahydropyrido[4,3-b][1,4]oxazin-3-one] | 655 nM
CN(C(=O)C1(c2cccc(C(F)(F)F)c2)CC1)C1CCN(C(=O)N2CC[C@@H]3OCC(=O)N[C@@H]3C2)CC1 [Example 82] | 349 nM
CN(CC1CN(C(=O)N2CC[C@@H]3OCC(=O)N[C@@H]3C2)C1)C(c1ccc(C(F)(F)F)cc1)C(F)(F)F (stereo partly drawn) [Example 80, (4aR,8aS)-6-(3-((Methyl(2,2,2-trifluoro-1-(4-(trifluoromethyl)phenyl)ethyl)amino)methyl)azetidine-1-carbonyl)hexahydro-2H-pyrido[4,3-b][1,4]oxazin-3 (4H)-one] | 4 nM
O=C1CO[C@H]2CCN(C(=O)N3CCC(C#Cc4ccc(Cl)cc4Cl)CC3)C[C@H]2N1 [Example 131, (+)-(4aR,8aS)-6-[4-[2-(2,4-Dichlorophenyl)ethynyl]piperidine-1carbonyl]-4,4a,5,7,8,8a-hexahydropyrido[4,3-b][1,4]oxazin-3-one] | 22 nM

Continued, values first:

IC50 | Structure (SMILES)
5 nM | O=C1CO[C@H]2CCN(C(=O)N3CC(C#Cc4c(Cl)cccc4Cl)C3)C[C@H]2N1 [Example 157, (+)-(4aR,8aS)-6-(3-((2,6-Dichlorophenyl)ethynyl)azetidine-1-carbonyl)hexahydro-2H-pyrido[4,3-b][1,4]oxazin-3(4H)-one]
1 nM | O=C1CO[C@H]2CCN(C(=O)N3CC(C#Cc4c(F)cc(C(F)(F)F)cc4Cl)C3)C[C@H]2N1 [Example 189, (4aR,8aS)-6-[3-[2-[2-Chloro-6-fluoro-4-(trifluoromethyl)phenyl]ethynyl]azetidine-1-carbonyl]-4,4a,5,7,8,8a-hexahydropyrido[4,3-b][1,4]oxazin-3-one]
2 nM | O=C1CO[C@H]2CCN(C(=O)N3CC(C#Cc4ccc(C(F)(F)F)cc4Cl)C3)C[C@H]2N1 [Example 200, (4aR,8aS)-6-(3-((2-Chloro-4-(trifluoromethyl)phenyl)ethynyl)azetidine-1-carbonyl)hexahydro-2H-pyrido[4,3-b][1,4]oxazin-3(4H)-one]
105 nM | O=C1CO[C@H]2CCN(C(=O)N3CC(CNC(c4ccccc4)C(F)(F)F)C3)C[C@H]2N1 (stereo partly drawn) [Example 71, (4aR,8aS)-6-(3-(((2,2,2-Trifluoro-1-phenylethyl)amino)methyl)azetidine-1-carbonyl)hexahydro-2H-pyrido[4,3-b][1,4]oxazin-3(4H)-one]
608 nM | CN(C(=O)Cc1cccc(C(F)(F)F)c1Cl)C1CCN(C(=O)N2CC[C@@H]3OCC(=O)N[C@@H]3C2)CC1 [Example 83, N-[1-[(4aR,8aS)-3-oxo-4,4a,5,7,8,8a-hexahydropyrido[4,3-b][1,4]oxazine-6-carbonyl]piperidin-4-yl]-2-[2-chloro-3-(trifluoromethyl)phenyl]-N-methylacetamide]
81 nM | COCc1ccccc1C#CC1CN(C(=O)N2CC[C@@H]3OCC(=O)N[C@@H]3C2)C1 [Example 191, (4aR,8aS)-6-[3-[2-[2-(Methoxymethyl)phenyl]ethynyl]azetidine-1-carbonyl]-4,4a,5,7,8,8a-hexahydropyrido[4,3-b][1,4]oxazin-3-one]
107 nM | O=C1CO[C@H]2CCN(C(=O)N3CC(C#CC4=CCCC4)C3)C[C@H]2N1 [Example 199, (4aR,8aS)-6-[3-[2-(Cyclopenten-1-yl)ethynyl]azetidine-1-carbonyl]-4,4a,5,7,8,8a-hexahydropyrido[4,3-b][1,4]oxazin-3-one]
9 nM | O=C1CO[C@H]2CCN(C(=O)N3CC(C#Cc4ccccc4Cl)C3)C[C@H]2N1 [Example 133]
7 nM | O=C1CO[C@H]2CCN(C(=O)N3CC(SCc4ccc(C(F)(F)F)cc4F)C3)C[C@H]2N1 [Example 156, (4aR,8aS)-6-[3-[[2-Fluoro-4-(trifluoromethyl)phenyl]methylsulfanyl]azetidine-1-carbonyl]-4,4a,5,7,8,8a-hexahydropyrido[4,3-b][1,4]oxazin-3-one]
56 nM | N#CC1(c2ccc(C#CC3CN(C(=O)N4CC[C@@H]5OCC(=O)N[C@@H]5C4)C3)cc2)CC1 [Example 178, 1-[4-[2-[1-[(4aR,8aS)-3-Oxo-4,4a,5,7,8,8a-hexahydropyrido[4,3-b][1,4]oxazine-6-carbonyl]azetidin-3-yl]ethynyl]phenyl]cyclopropane-1-carbonitrile]
306 nM | O=C1CO[C@H]2CCN(C(=O)N3CCC(C#Cc4cnccc4Cl)CC3)C[C@H]2N1 [Example 126, (+)-(4aR,8aS)-6-[4-[2-(4-Chloropyridin-3-yl)ethynyl]piperidine-1-carbonyl]-4,4a,5,7,8,8a-hexahydropyrido[4,3-b][1,4]oxazin-3-one]
